Data reported in US20260125382A1, “COMPOUNDS FOR INHIBITING OR DEGRADING CDK2 AND/OR CDK9 AND MEDICINAL USE THEREOF” (KOREA RESEARCH INSTITUTE OF CHEMICAL TECHNOLOGY, priority 2022, published 2026).

Tests used:
CDK2 = molecular target: T1, CDK2 (Homo sapiens, UniProt P24941); test: CDK protein degradation activity (Western blotting), CDK2; assay type: cell-based; conditions: MDA-MB-231 cells, 16 hours, Western blot
T1 construct: endogenous in cells; host or cells: MDA-MB-231
How it was run: (§1)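 MDA-MB-231 cells treated 16 h with compound at 100 nM, 1 μM or 10 μM, with DMSO as control. Lysates run on SDS-PAGE and immunoblotted for CDK2, CDK9 and tubulin; band levels quantified by densitometry.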

CDK9 = molecular target: T2, CDK9 (Homo sapiens, UniProt P50750); test: CDK protein degradation activity (Western blotting), CDK9; assay type: cell-based; conditions: MDA-MB-231 cells, 16 hours, Western blot
T2 construct: endogenous in cells; host or cells: MDA-MB-231
T2 sequence (P50750 whole entry): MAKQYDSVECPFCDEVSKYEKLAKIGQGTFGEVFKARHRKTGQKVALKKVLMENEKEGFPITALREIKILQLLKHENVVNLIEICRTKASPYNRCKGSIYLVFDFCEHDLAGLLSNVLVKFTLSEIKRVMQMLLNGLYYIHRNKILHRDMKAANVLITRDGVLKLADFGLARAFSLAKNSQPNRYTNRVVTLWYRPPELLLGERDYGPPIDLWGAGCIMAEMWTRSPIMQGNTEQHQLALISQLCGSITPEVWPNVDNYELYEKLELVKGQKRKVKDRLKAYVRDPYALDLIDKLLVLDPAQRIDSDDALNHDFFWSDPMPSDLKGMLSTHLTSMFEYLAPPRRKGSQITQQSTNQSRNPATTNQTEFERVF
How it was run: as §1

SMILES: O=C1CC[C@H](N2C(=O)c3ccc(N4CCC(C(=O)N5CCN(C6CC7(CCN(c8ccc(Nc9ncnc%10c9ncn%10[C@H]9C[C@@H](NC(=O)Cc%10ccccc%10)C9)cc8)CC7)C6)CC5)CC4)cc3C2=O)C(=O)N1 [Compound 361, N-((1s,3s)-3-(6-((4-(2-(4-(1-(2-(2,6-dioxopiperidin-3-yl)-1,3-dioxoisoindolin-5-yl)piperidin-4-carbonyl)piperazin-1-yl)-7-azaspiro[3.5]nonan-7-yl)phenyl)amino)-9H-purin-9-yl)cyclobutyl)-2-phenylacetamide]
- Enzyme degradation CDK2 (% remaining) @ 0.1 μM (CDK2): 20%
- Enzyme degradation CDK2 (% remaining) @ 1 μM (CDK2): 10%
- Enzyme degradation CDK2 (% remaining) @ 10 μM (CDK2): 10%
- Enzyme degradation CDK9 (% remaining) @ 0.1 μM (CDK9): 50%
- Enzyme degradation CDK9 (% remaining) @ 1 μM (CDK9): 10%
- Enzyme degradation CDK9 (% remaining) @ 10 μM (CDK9): 10%

SMILES: O=C1CC[C@H](N2C(=O)c3cccc(NCC(=O)N4CCC(CN5CCC(CNc6ncnc7c6ncn7[C@H]6C[C@@H](NC(=O)c7c(Cl)cccc7Cl)C6)CC5)CC4)c3C2=O)C(=O)N1 [Compound 170, 2,6-dichloro-N-((1s,3s)-3-(6-(((1-((1-((2-(2,6-dioxopiperidin-3-yl)-1,3-dioxoisoindolin-4-yl)glycyl)piperidin-4-yl)methyl)piperidin-4-yl)methyl)amino)-9H-purin-9-yl)cyclobutyl)benzamide]
- Enzyme degradation CDK2 (% remaining) @ 0.1 μM (CDK2): 0%
- Enzyme degradation CDK2 (% remaining) @ 1 μM (CDK2): 10%
- Enzyme degradation CDK2 (% remaining) @ 10 μM (CDK2): 20%
- Enzyme degradation CDK9 (% remaining) @ 0.1 μM (CDK9): 10%
- Enzyme degradation CDK9 (% remaining) @ 1 μM (CDK9): 0%
- Enzyme degradation CDK9 (% remaining) @ 10 μM (CDK9): 10%

SMILES: Cc1cccc(C(=O)N[C@H]2C[C@@H](n3cnc4c(NCc5ccc(OCC6CCN(C(=O)CNc7ccc8c(c7)C(=O)N([C@H]7CCC(=O)NC7=O)C8=O)CC6)cc5)ncnc43)C2)n1 [Compound 108, N-((1s,3s)-3-(6-((4-((1-((2-(2,6-dioxopiperidin-3-yl)-1,3-dioxoisoindolin-5-yl)glycyl)piperidin-4-yl)methoxy)benzyl)amino)-9H-purin-9-yl)cyclobutyl)-6-methylpicolinamide]
- Enzyme degradation CDK2 (% remaining) @ 0.1 μM (CDK2): 30%
- Enzyme degradation CDK2 (% remaining) @ 1 μM (CDK2): 30%
- Enzyme degradation CDK2 (% remaining) @ 10 μM (CDK2): 60%
- Enzyme degradation CDK9 (% remaining) @ 0.1 μM (CDK9): 0/0/0%
- Enzyme degradation CDK9 (% remaining) @ 1 μM (CDK9): 0/0/0%
- Enzyme degradation CDK9 (% remaining) @ 10 μM (CDK9): 0/0/0%

SMILES: O=C1CC[C@H](N2C(=O)c3cccc(NC[C@H]4CC[C@H](CN5CCN(c6ccc(Nc7ncnc8c7ncn8[C@H]7C[C@@H](NC(=O)Cc8ccccc8)C7)cc6)CC5)CC4)c3C2=O)C(=O)N1 [Compound 222, N-((1s,3s)-3-(6-((4-(4-(((1r,4r)-4-(((2-(2,6-dioxopiperidin-3-yl)-1,3-dioxoisoindolin-4-yl)amino)methyl)cyclohexyl)methyl)piperazin-1-yl)phenyl)amino)-9H-purin-9-yl)cyclobutyl)-2-phenylacetamide]
- Enzyme degradation CDK2 (% remaining) @ 0.1 μM (CDK2): 100/100/100%
- Enzyme degradation CDK2 (% remaining) @ 1 μM (CDK2): 100/100/100%
- Enzyme degradation CDK2 (% remaining) @ 10 μM (CDK2): 100/100/100%
- Enzyme degradation CDK9 (% remaining) @ 0.1 μM (CDK9): 70%
- Enzyme degradation CDK9 (% remaining) @ 1 μM (CDK9): 70%
- Enzyme degradation CDK9 (% remaining) @ 10 μM (CDK9): 80%

SMILES: O=C1CC[C@H](N2C(=O)c3cccc(OCC(=O)N4CCC(CN5CCC(c6ccc(Nc7ncnc8c7ncn8[C@H]7C[C@@H](NC(=O)Cc8ccccc8)C7)cc6)CC5)CC4)c3C2=O)C(=O)N1 [Compound 287, N-((1s,3s)-3-(6-((4-(1-((1-(2-((2-(2,6-dioxopiperidin-3-yl)-1,3-dioxoisoindolin-4-yl)oxy)acetyl)piperidin-4-yl)methyl)piperidin-4-yl)phenyl)amino)-9H-purin-9-yl)cyclobutyl)-2-phenylacetamide]
- Enzyme degradation CDK2 (% remaining) @ 0.1 μM (CDK2): 0/0/0%
- Enzyme degradation CDK2 (% remaining) @ 1 μM (CDK2): 0/0/0%
- Enzyme degradation CDK2 (% remaining) @ 10 μM (CDK2): 0/0/0%
- Enzyme degradation CDK9 (% remaining) @ 0.1 μM (CDK9): 0/0/0%
- Enzyme degradation CDK9 (% remaining) @ 1 μM (CDK9): 0/0/0%
- Enzyme degradation CDK9 (% remaining) @ 10 μM (CDK9): 0/0/0%

SMILES: O=C1CC[C@H](N2C(=O)c3ccc(N4CCC(CN5CCN(c6ccc(Nc7ncnc8c7ncn8C7CC(NC(=O)c8cccc(C(F)(F)F)n8)C7)cc6)CC5)CC4)cc3C2=O)C(=O)N1 (stereo partly drawn) [Compound 393, N-((1s,3s)-3-(6-((4-(4-((1-(2-(2,6-dioxopiperidin-3-yl)-1,3-dioxoisoindolin-5-yl)piperidin-4-yl)methyl)piperazin-1-yl)phenyl)amino)-9H-purin-9-yl)cyclobutyl)-6-(trifluoromethyl)picolinamide]
- Enzyme degradation CDK2 (% remaining) @ 0.1 μM (CDK2): 10/10/10%
- Enzyme degradation CDK2 (% remaining) @ 1 μM (CDK2): 10/10/10%
- Enzyme degradation CDK2 (% remaining) @ 10 μM (CDK2): 10/10/10%
- Enzyme degradation CDK9 (% remaining) @ 0.1 μM (CDK9): 0/0/0%
- Enzyme degradation CDK9 (% remaining) @ 1 μM (CDK9): 0/0/0%
- Enzyme degradation CDK9 (% remaining) @ 10 μM (CDK9): 0/0/0%

SMILES: Cc1cccc(C(=O)NC2CC(n3cnc4c(NCCCN5CCN(CC6CCN(C(=O)CNc7cccc8c7C(=O)N([C@@H]7CCC(=O)NC7=O)C8=O)CC6)CC5)ncnc43)C2)n1 (stereo partly drawn) [Compound 143, N-((1r,3r)-3-(6-((3-(4-((1-((2-(2,6-dioxopiperidin-3-yl)-1,3-dioxoisoindolin-4-yl)glycyl)piperidin-4-yl)methyl)piperazin-1-yl)propyl)amino)-9H-purin-9-yl)cyclobutyl)-6-methylpicolinamide]
- Enzyme degradation CDK2 (% remaining) @ 0.1 μM (CDK2): 80%
- Enzyme degradation CDK2 (% remaining) @ 1 μM (CDK2): 50%
- Enzyme degradation CDK2 (% remaining) @ 10 μM (CDK2): 100%
- Enzyme degradation CDK9 (% remaining) @ 0.1 μM (CDK9): 0/0/0%
- Enzyme degradation CDK9 (% remaining) @ 1 μM (CDK9): 0/0/0%
- Enzyme degradation CDK9 (% remaining) @ 10 μM (CDK9): 0/0/0%

SMILES: Cc1cccc(C(=O)NC2CC(n3cnc4c(Nc5ccc(N6CCN(CCC7CCN(C(=O)C8CN(c9ccc%10c(c9)C(=O)N([C@H]9CCC(=O)NC9=O)C%10=O)C8)CC7)CC6)cc5)ncnc43)C2)n1 (stereo partly drawn) [Compound 388, N-((1s,3s)-3-(6-((4-(4-(2-(1-(1-(2-(2,6-dioxopiperidin-3-yl)-1,3-dioxoisoindolin-5-yl)azetidin-3-carbonyl)piperidin-4-yl)ethyl)piperazin-1-yl)phenyl)amino)-9H-purin-9-yl)cyclobutyl)-6-methylpicolinamide]
- Enzyme degradation CDK2 (% remaining) @ 0.1 μM (CDK2): 40/40/40%
- Enzyme degradation CDK2 (% remaining) @ 1 μM (CDK2): 40/40/40%
- Enzyme degradation CDK2 (% remaining) @ 10 μM (CDK2): 40/40/40%
- Enzyme degradation CDK9 (% remaining) @ 0.1 μM (CDK9): 0/0/0%
- Enzyme degradation CDK9 (% remaining) @ 1 μM (CDK9): 0/0/0%
- Enzyme degradation CDK9 (% remaining) @ 10 μM (CDK9): 0/0/0%

SMILES: Cc1cccc(C(=O)N[C@H]2C[C@@H](n3cnc4c(NCc5cccc(OCCCN6CCN(C(=O)COc7cccc8c7C(=O)N([C@H]7CCC(=O)NC7=O)C8=O)CC6)c5)ncnc43)C2)n1 [Compound 101, N-((1s,3s)-3-(6-((3-(3-(4-(2-((2-(2,6-dioxopiperidin-3-yl)-1,3-dioxoisoindolin-4-yl)oxy)acetyl)piperazin-1-yl)propoxy)benzyl)amino)-9H-purin-9-yl)cyclobutyl)-6-methylpicolinamide]
- Enzyme degradation CDK2 (% remaining) @ 0.1 μM (CDK2): 70%
- Enzyme degradation CDK2 (% remaining) @ 1 μM (CDK2): 50%
- Enzyme degradation CDK2 (% remaining) @ 10 μM (CDK2): 40%
- Enzyme degradation CDK9 (% remaining) @ 0.1 μM (CDK9): 80%
- Enzyme degradation CDK9 (% remaining) @ 1 μM (CDK9): 30%
- Enzyme degradation CDK9 (% remaining) @ 10 μM (CDK9): 30%

SMILES: O=C1CC[C@H](N2C(=O)c3cccc(CCCN4CCC(CN5CCN(c6ccc(Nc7ncnc8c7ncn8C7CC(NC(=O)c8cccc(C(F)(F)F)n8)C7)cc6)CC5)CC4)c3C2=O)C(=O)N1 (stereo partly drawn) [Compound 426, N-((1s,3s)-3-(6-((4-(4-((1-(3-(2-(2,6-dioxopiperidin-3-yl)-1,3-dioxoisoindolin-4-yl)propyl)piperidin-4-yl)methyl)piperazin-1-yl)phenyl)amino)-9H-purin-9-yl)cyclobutyl)-6-(trifluoromethyl)picolinamide]
- Enzyme degradation CDK2 (% remaining) @ 0.1 μM (CDK2): 10%
- Enzyme degradation CDK2 (% remaining) @ 1 μM (CDK2): 10%
- Enzyme degradation CDK2 (% remaining) @ 10 μM (CDK2): 30%
- Enzyme degradation CDK9 (% remaining) @ 0.1 μM (CDK9): 0%
- Enzyme degradation CDK9 (% remaining) @ 1 μM (CDK9): 0%
- Enzyme degradation CDK9 (% remaining) @ 10 μM (CDK9): 20%

SMILES: O=C1CC[C@H](N2C(=O)c3ccc(OCC(=O)N4CCC(CN5CCC(CNc6ncnc7c6ncn7C6CC(NC(=O)c7c(Cl)cccc7Cl)C6)CC5)CC4)cc3C2=O)C(=O)N1 (stereo partly drawn) [Compound 169, 2,6-dichloro-N-((1s,3s)-3-(6-(((1-((1-(2-((2-(2,6-dioxopiperidin-3-yl)-1,3-dioxoisoindolin-5-yl)oxy)acetyl)piperidin-4-yl)methyl)piperidin-4-yl)methyl)amino)-9H-purin-9-yl)cyclobutyl)benzamide]
- Enzyme degradation CDK2 (% remaining) @ 0.1 μM (CDK2): 80%
- Enzyme degradation CDK2 (% remaining) @ 1 μM (CDK2): 70%
- Enzyme degradation CDK2 (% remaining) @ 10 μM (CDK2): 70%
- Enzyme degradation CDK9 (% remaining) @ 0.1 μM (CDK9): 10%
- Enzyme degradation CDK9 (% remaining) @ 1 μM (CDK9): 0%
- Enzyme degradation CDK9 (% remaining) @ 10 μM (CDK9): 0%

SMILES: O=C1CCC(N2C(=O)c3cccc(N4CCC(CN5CCC(CNc6ncnc7c6ncn7[C@H]6C[C@@H](NC(=O)Cc7ccccc7)C6)CC5)CC4)c3C2=O)C(=O)N1 (stereo partly drawn) [Compound 180, N-((1s,3s)-3-(6-(((1-((1-(2-(2,6-dioxopiperidin-3-yl)-1,3-dioxoisoindolin-4-yl)piperidin-4-yl)methyl)piperidin-4-yl)methyl)amino)-9H-purin-9-yl)cyclobutyl)-2-phenylacetamide]
- Enzyme degradation CDK2 (% remaining) @ 0.1 μM (CDK2): 30/30/30%
- Enzyme degradation CDK2 (% remaining) @ 1 μM (CDK2): 30/30/30%
- Enzyme degradation CDK2 (% remaining) @ 10 μM (CDK2): 30/30/30%
- Enzyme degradation CDK9 (% remaining) @ 0.1 μM (CDK9): 20%
- Enzyme degradation CDK9 (% remaining) @ 1 μM (CDK9): 80%
- Enzyme degradation CDK9 (% remaining) @ 10 μM (CDK9): 0%
